Data published in ChEMBL document CHEMBL4823263, “Discovery of 2-(3-(3-Carbamoylpiperidin-1-yl)phenoxy)acetic Acid Derivatives as Novel Small-Molecule Inhibitors of the β-Catenin/B-Cell Lymphoma 9 Protein-Protein Interaction” (J Med Chem, 2021).

Tests used:
[1] = biological target: Protein Wnt-3a (Homo sapiens) (UniProt P56704); assay: Inhibition of Wnt3a in human SW480 cells assessed as Axin2 level at 10 uM incubated for […] by quantitative real-time PCR analysis relative to control; format: cell-based; parameters: scale not given: the % may be the effect or the level left
MDA-MB-231 = assay: Antiproliferative activity against human MDA-MB-231 cells incubated for 72 hrs by MTS assay; format: functional, cell-based; details: MDA-MB-231, 72 h
[2] = biological target: Protein Wnt-3a (Mus musculus) (UniProt P27467); assay: Inhibition of mouse wnt3a expressed in human MDA-MB-231 cells assessed as cyclin D1 level at 30 uM incubated for […] by quantitative real-time PCR analysis relative to control; format: cell-based; parameters: scale not given: the % may be the effect or the level left
[3] = Downregulation of HPRT level in human SW480 cells at 3.3 uM incubated for […] by quantitative real-time PCR analysis relative to control; format: ADME, cell-based; details: sw480, 3.3 µM
SW480 [4] = assay: Antiproliferative activity against human SW480 cells incubated for 72 hrs by MTS assay; format: functional, cell-based; details: SW480, 72 h
SW480 [5] = assay: Antiproliferative activity against human SW480 cells harboring empty pcDNA3.1 vector incubated for 72 hrs by MTS assay; format: functional, cell-based; details: SW480, 72 h
SW480 [6] = assay: Inhibition of Wnt/beta-catenin transactivation signalling in human SW480 cells harboring mutant tcf4 binding sites assessed as relative activity at 3.125 uM incubated for 24 hrs by FOPFlash luciferase assay relative to control; format: cell-based; parameters: scale not given: the % may be the effect or the level left
[7] = biological target: T1, beta-catenin-B-cell lymphoma 9 protein complex (Homo sapiens) (UniProt P35222+O00512); assay: Disruption of beta-catenin/N-terminal biotinylated human BCL9 HD2 (350 to 375 residues) protein-protein interaction in human SW480 cells incubated for 1 hr followed by N-terminal biotinylated human BCL9 HD2 addition and measured after 2 hrs by pull-down assay; format: cell-based; details: time 3.0 hrs
[8] = biological target: Protein Wnt-3a (Mus musculus) (UniProt P27467); assay: Inhibition of mouse wnt3a expressed in human MDA-MB-231 cells assessed as Axin2 level at 3.3 uM incubated for […] by quantitative real-time PCR analysis relative to control; format: cell-based; parameters: scale not given: the % may be the effect or the level left
[9] = biological target: Protein Wnt-3a (Homo sapiens) (UniProt P56704); assay: Inhibition of Wnt3a in human SW480 cells assessed as Axin2 level at 3.3 uM incubated for […] by quantitative real-time PCR analysis relative to control; format: cell-based; parameters: scale not given: the % may be the effect or the level left
[10] = Selectivity ratio of IC50 for human SW480 cells harboring beta-catenin pcDNA3.1 vector to IC50 for human SW480 cells harboring empty pcDNA3.1 vector
[11] = biological target: Protein Wnt-3a (Homo sapiens) (UniProt P56704); assay: Inhibition of Wnt3a in human SW480 cells assessed as LEF1 level at 10 uM incubated for […] by quantitative real-time PCR analysis relative to control; format: cell-based; parameters: scale not given: the % may be the effect or the level left
[12] = biological target: Protein Wnt-3a (Homo sapiens) (UniProt P56704); assay: Inhibition of Wnt3a in human SW480 cells assessed as cyclin D1 level at 10 uM incubated for […] by quantitative real-time PCR analysis relative to control; format: cell-based; parameters: scale not given: the % may be the effect or the level left
[13] = biological target: Protein Wnt-3a (Homo sapiens) (UniProt P56704); assay: Inhibition of Wnt3a in human SW480 cells assessed as cyclin D1 level at 30 uM incubated for […] by quantitative real-time PCR analysis relative to control; format: cell-based; parameters: scale not given: the % may be the effect or the level left
HCT-116 = assay: Antiproliferative activity against human HCT116 cells incubated for 72 hrs by MTS assay; format: functional, cell-based; details: HCT-116, 72 h
[14] = biological target: Protein Wnt-3a (Homo sapiens) (UniProt P56704); assay: Inhibition of Wnt3a in human SW480 cells assessed as LEF1 level at 3.3 uM incubated for […] by quantitative real-time PCR analysis relative to control; format: cell-based; parameters: scale not given: the % may be the effect or the level left
[15] = biological target: T1, beta-catenin-B-cell lymphoma 9 protein complex (Homo sapiens); assay: Disruption of full length beta-catenin/BCL9 interaction in human HCT116 cells incubated for 24 hrs by co-immunoprecipitation assay; format: cell-based; details: HCT-116
SW480 [16] = assay: Inhibition of Wnt signalling in human SW480 cells assessed as reduction in cyclinD1 expression incubated for 24 hrs by Western blot analysis; format: cell-based
[17] = biological target: Protein Wnt-3a (Homo sapiens) (UniProt P56704); assay: Inhibition of Wnt3a in human SW480 cells assessed as cyclin D1 level at 3.3 uM incubated for […] by quantitative real-time PCR analysis relative to control; format: cell-based; parameters: scale not given: the % may be the effect or the level left
[18] = biological target: Protein Wnt-3a (Mus musculus) (UniProt P27467); assay: Inhibition of mouse wnt3a expressed in human MDA-MB-231 cells assessed as LEF1 level at 30 uM incubated for […] by quantitative real-time PCR analysis relative to control; format: cell-based; parameters: scale not given: the % may be the effect or the level left
[19] = biological target: Protein Wnt-3a (Homo sapiens) (UniProt P56704); assay: Inhibition of Wnt3a in human SW480 cells assessed as LEF1 level at 30 uM incubated for […] by quantitative real-time PCR analysis relative to control; format: cell-based; parameters: scale not given: the % may be the effect or the level left
[20] = biological target: Protein Wnt-3a (Mus musculus) (UniProt P27467); assay: Inhibition of mouse wnt3a expressed in human MDA-MB-231 cells assessed as Axin2 level at 30 uM incubated for […] by quantitative real-time PCR analysis relative to control; format: cell-based; parameters: scale not given: the % may be the effect or the level left
[21] = biological target: Protein Wnt-3a (Mus musculus) (UniProt P27467); assay: Inhibition of mouse wnt3a expressed in human MDA-MB-231 cells assessed as LEF1 level at 10 uM incubated for […] by quantitative real-time PCR analysis relative to control; format: cell-based; parameters: scale not given: the % may be the effect or the level left
[22] = biological target: Protein Wnt-3a (Mus musculus) (UniProt P27467); assay: Inhibition of mouse wnt3a expressed in human MDA-MB-231 cells assessed as Axin2 level at 10 uM incubated for […] by quantitative real-time PCR analysis relative to control; format: cell-based; parameters: scale not given: the % may be the effect or the level left
SW480 [23] = assay: Inhibition of Wnt signalling in human SW480 cells assessed as reduction in Axin2 expression incubated for 24 hrs by Western blot analysis; format: cell-based

Sequence of Protein Wnt-3a (Homo sapiens) (P56704 whole entry): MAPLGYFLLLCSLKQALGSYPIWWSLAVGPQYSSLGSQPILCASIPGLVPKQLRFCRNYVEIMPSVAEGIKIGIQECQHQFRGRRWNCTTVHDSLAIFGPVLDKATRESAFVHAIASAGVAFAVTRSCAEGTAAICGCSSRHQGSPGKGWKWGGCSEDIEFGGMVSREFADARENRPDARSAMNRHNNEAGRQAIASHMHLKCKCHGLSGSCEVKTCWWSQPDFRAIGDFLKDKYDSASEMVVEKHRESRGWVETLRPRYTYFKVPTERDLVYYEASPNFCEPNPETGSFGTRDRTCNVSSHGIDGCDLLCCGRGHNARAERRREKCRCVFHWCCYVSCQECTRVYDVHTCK
Sequence of Protein Wnt-3a (Mus musculus) (P27467 whole entry): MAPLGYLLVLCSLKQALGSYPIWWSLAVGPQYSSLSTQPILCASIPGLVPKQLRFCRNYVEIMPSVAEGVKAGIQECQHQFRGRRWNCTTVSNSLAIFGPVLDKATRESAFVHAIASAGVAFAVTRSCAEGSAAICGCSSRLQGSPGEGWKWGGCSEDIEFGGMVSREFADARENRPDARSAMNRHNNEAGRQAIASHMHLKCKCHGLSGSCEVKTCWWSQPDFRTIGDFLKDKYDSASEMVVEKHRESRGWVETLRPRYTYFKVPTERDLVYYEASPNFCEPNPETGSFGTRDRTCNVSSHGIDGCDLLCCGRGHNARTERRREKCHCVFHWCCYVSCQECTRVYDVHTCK

Activity [1]: 72%
IC50 (MDA-MB-231): 14.3 µM
Activity [2]: 66%
Activity [3]: 98%
IC50 (SW480 [4]): 16.3 µM
IC50 (SW480 [5]): 19 µM
Activity [7]: Dose-Dependent Effect
Activity [8]: 69%
Activity [9]: 99%
Activity [11]: 77%
Activity [12]: 40%
Activity [13]: 31%
IC50 (HCT-116): 29.6 µM
Activity [14]: 80%
Activity [15]: Dose-Dependent Effect
Activity [17]: 53%
Activity [18]: 76%
Activity [19]: 76%
Activity [20]: 50%
Activity [21]: 81%
Activity [22]: 57%
SMILES: CC(C)(Oc1cccc(N2CCC[C@H](C(=O)N(Cc3ccc(-c4cccs4)cc3)C3CC3)C2)c1)C(=O)NS(=O)(=O)c1ccc(C#N)cc1
Activity (SW480 [6]): 99%
Ratio IC50 [10]: 4
Activity (SW480 [16]): Dose-Dependent Effect
Activity (SW480 [23]): Dose-Dependent Effect
